The target in data set [1] is T1, dopamine 2 (D2) receptor (Rattus norvegicus, UniProt P61169).
T1 construct: A synaptosome fraction was separated from corpus striatum; from tissue; host or cells: corpus striatum of 9-10 week-old Wistar rats, synaptosome fraction
Description: Affinity for dopamine 2 receptor (tritiated spiperone binding). Details: species or system Wistar rats. The note with it: rat corpus striatum synaptosomes; [3H]spiperone 0.2 nM; 37° C., 20 min. The method, then:
Affinity for dopamine 2 receptor
A specific binding of dopamine 2 (D2) receptor was tested according to the method described in Eur. J. Pharmacol. 46, 377 (1977).
A synaptosome fraction was separated from corpus striatum of 9-10 week-old Wistar rats, and suspended in 50 mM Tris-HCl buffer (pH 7.1) containing 120 mM sodium chloride, 5 mM potassium chloride, 2 mM calcium chloride, 1 mM magnesium chloride, 10 μM pargyline and 0.1% ascorbic acid for the experiment.
The test compound at several concentrations and tritiated spiperone (final concentration 0.2 nM) were added to the synaptosome suspension, and each mixture was incubated at 37° C. for 20 minutes. After the incubation, the mixture was filtered with suction through Whatman GF/B (trade mark) glass filter. The filter was washed with 50 mM Tris-HCl buffer (pH 7.7), and the radioactivity of the filter was measured by a liquid scintillation counter. Non-specific binding was determined in the presence of 10^-4 M (±)-sulpiride. The concentration necessary for 50% inhibition (IC50) was determined on a graph, and inhibition constant (Ki value) was calculated.

Data set [2] concerns the target T2, serotonin 2 (5-HT2) receptor (Rattus norvegicus, UniProt P14842).
T2 construct: A crude synaptosome fraction was separated from hippocampus; from tissue; host or cells: hippocampus of 9-10 week-old Wistar rats, crude synaptosome fraction
Description: Affinity for serotonin 2 receptor (tritiated ketanserin binding). To be noted: rat hippocampus crude synaptosomes; [3H]ketanserin 0.2 nM; 37° C., 20 min. Details: species or system Wistar rats. The method, then:
Affinity for serotonin 2 receptor
A specific binding of serotonin 2 (5-HT2) receptor was tested according to the method described in Mol. Pharmacol. 21, 301 (1981).
A crude synaptosome fraction was separated from hippocampus of 9-10 week-old Wistar rats, and suspended in 50 mM Tris-HCl buffer (pH 7.7) for the experiment. The test compound at several concentration and tritiated ketanserin (final concentration 0.2 nM) were added to the synaptosome suspension, and each mixture was incubated at 37° C. for 20 minutes. After the incubation, the mixture was filtered with suction through Whatman GF/B (trade mark) glass filter. The filter was washed with 50 mM Tris-HCl buffer (pH 7.7), and the radioactivity of the filter was measured by a liquid scintillation counter. Non-specific binding was determined in the presence of 10^-5 M mianserin. The concentration necessary for 50% inhibition (IC50) was determined on a graph, and inhibition constant (Ki value ) was calculated.

The target of data set [3] is T3, serotonin 1A (5-HT1A) receptor (Rattus norvegicus, UniProt P19327).
T3 construct: A crude synaptosome fraction was separated from hippocampus; from tissue; host or cells: hippocampus of 9-10 week-old Wistar rats, crude synaptosome fraction
T3 sequence (P19327 1-422): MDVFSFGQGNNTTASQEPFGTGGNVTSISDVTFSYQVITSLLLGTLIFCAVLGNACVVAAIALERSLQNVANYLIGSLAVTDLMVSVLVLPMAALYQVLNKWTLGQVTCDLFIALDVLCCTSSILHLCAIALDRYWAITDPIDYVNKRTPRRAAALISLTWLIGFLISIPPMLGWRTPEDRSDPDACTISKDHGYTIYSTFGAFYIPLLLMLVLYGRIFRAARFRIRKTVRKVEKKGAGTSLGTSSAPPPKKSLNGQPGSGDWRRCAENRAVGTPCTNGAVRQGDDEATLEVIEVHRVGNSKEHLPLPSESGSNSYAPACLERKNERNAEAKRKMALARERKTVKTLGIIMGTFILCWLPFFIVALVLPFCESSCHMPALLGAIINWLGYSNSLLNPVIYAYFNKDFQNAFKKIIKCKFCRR
Description: Affinity for serotonin 1A receptor (tritiated 8-OH-DPAT binding). To be noted: rat hippocampus crude synaptosomes; [3H]8-OH-DPAT 0.2 nM; 37° C., 12 min. Further details: species or system Wistar rats. As for the experimental part: Affinity for serotonin 1A receptor
A specific binding of serotonin 1A (5-HT1A) receptor was tested according to the method described in J. Neurochem. 44, 1685 (1985).
A crude synaptosome fraction was separated from hippocampus of 9-10 week-old Wistar rats, and suspended in 50 mM Tris-HCl buffer (pH 7.4) containing 1 mM manganese chloride for the experiment. The test compound at several concentrations and tritiated 8-hydroxy-2-dipropyl-aminotetralin(8-OH-DPAT, final concentration 0.2 nM) were added to the synaptosome suspension, and each mixture was incubated at 37° C. for 12 minutes. After the incubation, the mixture was filtered with suction through Whatman GF/B (trade mark) glass filter. The filter was washed with 50 mM Tris-HCl buffer (pH 7.7), and the radioactivity of the filter was measured by a liquid scintillation counter. Non-specific binding was determined in the presence of 10^-5 M serotonin (5-HT). The concentration necessary for 50% inhibition (IC50) was determined on a graph, and inhibition constant (Ki value) was calculated.

The test system of data set [4] is apomorphine-induced hyperactivity. As to the kind of experiment: Anti-apomorphine action (in mouse). The format is in vivo, male dd mice. The note with it: oral, 60 min before 0.5 mg/kg s.c. apomorphine hydrochloride, movement lowered by 50%. As for the experimental part:
Anti-apomorphine action (in mouse)
Male dd mice at 3 per group were used for the experiment. The test compound was orally administered to the mice, and 60 minutes later, 0.5 mg/kg of apomorphine hydrochloride was subcutaneously administered. the movement for 20 minutes from immediately after the administration of apomorphine hydrochloride was measured using Valimex (Columbus, USA). Each group was tested four times, and the amount of the test compound necessary to lower the movement by 50% than that of a control group was calculated from a graph and taken as ED50.

The subject of data set [5] is ergometrine-induced head-twitches. As to the kind of experiment: Anti-ergometrine action (head-twitch). To be noted: Mus musculus; oral, 60 min before 20 mg/kg i.p. ergometrine maleate; head-twitch vanished, Probit. Type of data set: in vivo, male ddY mice. The method, then: Male ddY mice at 12 per group were used for the experiment. The test compound was orally administered to the mice, and 60 minutes later, 20 mg/kg of ergometrine maleate was intraperitoneally administered. The amount of the test compound necessary to vanish the head-twitch reaction for 10 minutes from immediately after the administration of ergometrine maleate was calculated as ED50 value by Probit method.

Data set [6] deals with negative symptoms, EPS, depression and internal secretion in patients. To be noted: cited from earlier work.
In data set [7] the test system is catalepsy induced by haloperidol. The note with it: preclinical; cited from earlier work.

The text below walks through data of patent publication US5532240A, “Condensed thiophene compound and pharmaceutical use thereof” (Yoshitomi Pharmaceutical Industries, Ltd., priority 1991, dated 1996).

pKi: −log10 of the molar value.

For orientation: pKi means the negative decadic logarithm of the Ki, by convention in mol/L. Higher therefore signals a small Ki. One may read the ED50 as the midpoint of the dose-response relation. High values mean weaker potency, low ones greater potency.

T2 sequence (P14842 whole entry): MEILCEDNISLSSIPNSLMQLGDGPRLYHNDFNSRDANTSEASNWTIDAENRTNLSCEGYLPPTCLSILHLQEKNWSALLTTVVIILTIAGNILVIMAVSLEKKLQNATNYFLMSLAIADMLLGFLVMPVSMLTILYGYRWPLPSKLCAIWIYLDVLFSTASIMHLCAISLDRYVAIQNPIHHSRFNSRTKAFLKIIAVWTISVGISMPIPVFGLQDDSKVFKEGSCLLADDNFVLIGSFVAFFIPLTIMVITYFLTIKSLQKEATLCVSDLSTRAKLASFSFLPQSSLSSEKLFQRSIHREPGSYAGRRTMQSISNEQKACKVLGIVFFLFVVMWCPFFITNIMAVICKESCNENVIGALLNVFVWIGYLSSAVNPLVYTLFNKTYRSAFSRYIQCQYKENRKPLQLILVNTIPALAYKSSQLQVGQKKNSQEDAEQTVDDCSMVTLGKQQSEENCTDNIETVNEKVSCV
T1 sequence (P61169 whole entry): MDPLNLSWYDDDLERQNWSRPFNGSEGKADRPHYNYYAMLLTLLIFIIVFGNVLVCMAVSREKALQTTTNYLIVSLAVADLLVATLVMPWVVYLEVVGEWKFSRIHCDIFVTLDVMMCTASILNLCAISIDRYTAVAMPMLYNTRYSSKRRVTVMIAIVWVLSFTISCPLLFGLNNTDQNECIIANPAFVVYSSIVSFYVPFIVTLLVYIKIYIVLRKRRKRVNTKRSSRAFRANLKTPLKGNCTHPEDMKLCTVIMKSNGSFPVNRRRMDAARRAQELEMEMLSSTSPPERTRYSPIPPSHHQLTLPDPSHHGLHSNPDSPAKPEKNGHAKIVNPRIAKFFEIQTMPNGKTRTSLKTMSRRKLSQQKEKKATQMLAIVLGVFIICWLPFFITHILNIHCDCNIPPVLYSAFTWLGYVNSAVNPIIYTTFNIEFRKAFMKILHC

For `O=C1CCCc2sc(CCN3CCC(c4noc5cc(F)ccc45)CC3)cc2N1` [Example 15, 2-(2-(4-(6-fluoro-1,2-benzisoxazol-3-yl)piperidin-1-yl)ethyl)-4,6,7,8-tetrahydro-5H-thieno[3,2-b]azepin-5-one], the pKi was 10.19 in data set [1], 9.49 in data set [2] and 8.80 in data set [3]. Further, the ED50 was 0.063 mg/kg in data set [4] and 0.089 mg/kg in data set [5].

With `Cc1sc2c(c1CCN1CCC(c3noc4cc(F)ccc34)CC1)NC(=O)CCC2` [Example 22, 3-(2-(4-(6-fluoro-1,2-benzoxazolyl-3-yl)piperidin-1-yl)ethyl)-2-methyl-4,6,7,8-tetrahydro-5H-thieno[3,2-b]azepin-5-one], the pKi in data set [1] was 9.28; in data set [2] it was 9.68; in data set [3], 7.82. The figures for the ED50 in data set [4] and in data set [5] were 1.1 mg/kg and 1.5 mg/kg, respectively.

With `CCc1sc2c(c1CCN1CCC(c3noc4cc(F)ccc34)CC1)CCN(C(C)=O)C2` [Example 32, 6-acetyl-2-ethyl-3-(2-(4-(6-fluoro-1,2-benzisoxazol-3-yl)piperidin-1-yl)ethyl)-4,5,6,7-tetrahydrothieno[2,3-c]pyridine], the pKi is 10.00 in data set [1], 10.07 in data set [2] and 7.27 in data set [3].

For `CC(=O)N1CCc2c(sc(CCN3CCC(c4noc5cc(F)ccc45)CC3)c2C)C1` [Example 42, 6-acetyl-2-(2-(4-(6-fluoro-1,2-benzisoxazol-3-yl)piperidin-1-yl)ethyl)-4,5,6,7-tetrahydro-3-methylthieno[2,3-c]pyridine], the pKi was 9.64 in data set [1], 9.70 in data set [2] and 8.96 in data set [3]. For the same compound, the ED50 is 0.2 mg/kg in data set [4] and 0.19 mg/kg in data set [5].

With `CC(=O)N1CCc2cc(C(=O)CCCN3CCC(c4noc5cc(F)ccc45)CC3)sc2C1` [Example 43, 6-acetyl-2-(4-(4-(6-fluoro-1,2-benzisoxazol-3-yl)piperidin-1-yl)butyryl)-4,5,6,7-tetrahydrothieno[2,3-c]pyridine], the values for the pKi in data set [1], in data set [2] and in data set [3] were 8.82, 9.96 and 7.06, respectively.

In the case of `CC(=O)N1CCc2c(sc(C)c2CCN2CCC(c3csc4cc(F)ccc34)CC2)C1` [Example 53, 6-acetyl-3-(2-(4-(6-fluorobenzo(b)thiophen-3-yl)piperidin-1-yl)ethyl)-4,5,6,7-tetrahydro-2-methylthieno[2,3-c]pyridine], the pKi in data set [1] is 9.82; in data set [2], 10.37; in data set [3] it was 8.43.

For the compound `CCc1c(CCN2CCC(c3noc4cc(F)ccc34)CC2)sc2c1CCN(C(C)=O)C2` [Example 73, 6-acetyl-2-(2-(4-(6-fluoro-1,2-benzisoxazol-3-yl)piperidin-1-yl)ethyl)-3-ethyl-4,5,6,7-tetrahydrothieno[2,3-c]pyridine], the pKi in data set [1] is 9.60; in data set [2] it was 10.09; in data set [3], 9.80. Besides, the ED50 was found to be 0.25 mg/kg in data set [4] and 0.35 mg/kg in data set [5].

Regarding `CCc1c(CCN2CCC(c3csc4cc(F)ccc34)CC2)sc2c1CCN(C(C)=O)C2` [Example 84, 6-acetyl-3-ethyl-2-(2-(4-(6-fluorobenzo-(b)thiophen-3-yl)piperidin-1-yl)ethyl)-4,5,6,7-tetrahydrothieno[2,3-c]pyridine], the values for the pKi in data set [1], in data set [2] and in data set [3] were 9.68, 9.74 and 9.89, respectively. Also, the ED50 in data set [4] was determined as 0.73 mg/kg; in data set [5], 0.95 mg/kg.

On to `CCc1c(CCN2CCC(c3coc4cc(F)ccc34)CC2)sc2c1CCN(C(C)=O)C2` [Example 85, 6-acetate-3-ethyl-2-(2-(4-(6-fluorobenzo(b)furan-3-yl)piperidin-1-yl)ethyl)-4,5,6,7-tetrahydro-thieno[2,3-c]pyridine], for which the figures for the pKi in data set [1], in data set [2] and in data set [3] were 9.28, 9.42 and 9.51, respectively. The ED50 is 0.79 mg/kg in data set [4] and 0.52 mg/kg in data set [5].

Consider `CCc1c(CCN2CCC(c3nsc4cc(F)ccc34)CC2)sc2c1CCN(C(C)=O)C2` [Example 86, 6-acetyl-3-ethyl-2-(2-(4-(6-fluoro-1,2-benzisothiazol-3-yl)piperidin-1-yl)ethyl)-4,5,6,7-tetrahydrothieno[2,3-c]pyridine], for which the pKi in data set [1] was 9.77; in data set [2], 10.04; in data set [3] it was 9.23. In addition, the ED50 in data set [4] is 0.54 mg/kg; in data set [5], 0.27 mg/kg.

On to `CCc1c(CCN2CCC(c3coc4ccc(C)cc34)CC2)sc2c1CCN(C(C)=O)C2` [Example 145, 6-acetyl-3-ethyl-2-(2-(4-(5-methylbenzo(b)-furan-3-yl)piperidin-1-yl)ethyl)-4,5,6,7-tetrahydrothieno[2,3-c]pyridine], for which the pKi in data set [1] was 8.42; in data set [2], 8.55; in data set [3], 9.85.

Take `O=C1CCCc2sc(CCN3CCC(c4coc5cc(F)ccc45)CC3)cc2N1` [Example 147, 2-(2-(4-(6-fluorobenzo(b)furan-3-yl)piperidin-1-yl)ethyl)-4,6,7,8-tetrahydro-5H-thieno[3,2-b]azepin-5-one]: the pKi was 9.40 in data set [1], 9.07 in data set [2] and 9.49 in data set [3].

Consider `Cc1ccc2occ(C3CCN(CCc4cc5c(s4)CCCC(=O)N5)CC3)c2c1` [Example 148, 2-(2-(4-(5-methylbenzo(b)furan-3-yl)piperidin-1-yl)ethyl)-4,6,7,8-tetrahydro-5H-thieno[3,2-b]azepin-5-one], for which the pKi was 8.64 in data set [1], 8.07 in data set [2] and 9.62 in data set [3].

With `O=C1CC2(CCCC2)CC(=O)N1CCCCN1CCN(c2ncccn2)CC1` [buspirone], the “clinical effect on symptoms” value in data set [6] was “improved the depression and EPS caused by haloperidol therapy”. Also, the “effect on catalepsy induced by haloperidol” value in data set [7] was “reverse catalepsy induced by haloperidol”.

As to `Cc1nc2sccn2c(=O)c1CCN1CCC(=C(c2ccc(F)cc2)c2ccc(F)cc2)CC1` [ritanserin], in data set [6], the “EPS / side-effects in clinical use” value is on record as “reduces the incidence of EPS caused by typical antipsychotic drug therapy” and the “clinical effect on symptoms” value is on record as “ameliorates negative symptoms”.
